Results reported in patent US20120028278A1, “CELL LINES EXPRESSING GUANYLATE CYCLASE-C AND METHODS OF USING THEM” (CHROMOCELL CORPORATION, priority 2009, published 2012).
Where a SMILES comes first, the peptide text is derived from it. Bridges are numbered along the chain shown (N, C = ends).

Tests used:
[1] = target: T1, human GC-C (Homo sapiens, UniProt P25092, F281L); test: competitive ELISA for detection of cGMP in the produced GC-C-expressing cell line; assay type: cell-based; conditions: 100 nM guanylin; cell lysate from GC-C-expressing cell line; FIG. 1
T1 construct: expressed in transfected cells; CMV promoter
T1 sequence (P25092 24-1073 F281L): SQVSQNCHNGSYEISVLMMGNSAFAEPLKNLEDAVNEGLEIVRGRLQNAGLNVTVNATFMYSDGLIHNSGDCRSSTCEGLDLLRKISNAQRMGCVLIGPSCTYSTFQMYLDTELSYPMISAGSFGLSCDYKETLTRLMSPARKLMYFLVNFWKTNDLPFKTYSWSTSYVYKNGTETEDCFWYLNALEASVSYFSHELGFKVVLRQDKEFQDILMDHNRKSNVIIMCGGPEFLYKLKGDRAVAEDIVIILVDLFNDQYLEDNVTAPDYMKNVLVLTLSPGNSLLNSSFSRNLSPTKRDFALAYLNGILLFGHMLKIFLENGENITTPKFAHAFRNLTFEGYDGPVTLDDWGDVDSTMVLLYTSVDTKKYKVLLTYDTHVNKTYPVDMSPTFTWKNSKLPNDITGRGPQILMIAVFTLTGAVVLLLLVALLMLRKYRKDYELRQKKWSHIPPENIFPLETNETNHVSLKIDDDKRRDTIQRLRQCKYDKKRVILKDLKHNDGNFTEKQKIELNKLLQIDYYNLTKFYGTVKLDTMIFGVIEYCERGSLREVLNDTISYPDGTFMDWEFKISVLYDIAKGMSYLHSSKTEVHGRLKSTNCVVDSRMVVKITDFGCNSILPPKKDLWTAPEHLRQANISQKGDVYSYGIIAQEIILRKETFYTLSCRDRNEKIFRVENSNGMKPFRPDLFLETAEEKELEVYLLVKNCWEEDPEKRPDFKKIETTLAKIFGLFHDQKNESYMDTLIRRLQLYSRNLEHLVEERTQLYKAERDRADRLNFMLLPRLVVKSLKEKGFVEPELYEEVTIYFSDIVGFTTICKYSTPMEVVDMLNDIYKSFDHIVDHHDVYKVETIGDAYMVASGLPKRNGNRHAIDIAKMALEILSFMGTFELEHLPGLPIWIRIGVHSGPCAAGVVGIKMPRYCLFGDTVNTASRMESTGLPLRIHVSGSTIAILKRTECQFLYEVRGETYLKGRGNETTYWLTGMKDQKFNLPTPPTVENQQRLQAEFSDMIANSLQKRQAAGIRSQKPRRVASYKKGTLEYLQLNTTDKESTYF
Description: A competitive ELISA for detection of cGMP was used to characterize native GC-C function in the produced GC-C-expressing cell line. Cells expressing GC-C were maintained under standard cell culture conditions in DMEM supplemented with 10% fetal bovine serum, glutamine and HEPES and grown in T175 cm flasks. For the ELISA, the cells were plated into coated 96-well plates (poly-D-lysine).
(§1) Cells were washed twice with serum-free medium and incubated with 1 mM IBMX for 30 minutes. Desired activators (i.e., guanylin, 0.001-40 μM) were then added to the cells and incubated for 30-40 minutes. Supernatant was removed, and the cells were washed with TBS buffer. […]. This was followed by lysis with 0.1N HCl and a freeze/thaw cycle at −20° C./room temperature. Defrosted lysates (samples were spun in Eppendorf tubes at 10,000 rpm) were centrifuged to pellet cell debris. The cleared supernatant lysate was then transferred to ELISA plates.
All of the following steps were performed at room temperature, unless otherwise indicated. ELISA plates were coated with anti-IgG antibodies in coating buffer (Na-carbonate/bi-carbonate buffer, 0.1 M final, pH 9.6) overnight at 4° C. […] The absorbance was then read at 405 nm on a SAFIRE^2™ plate reader (Tecan).
Maximum absorbance was seen when no cell lysate was used in the ELISA (Control).

[2] = target: T1, human GC-C; test: Direct Cyclic GMP Enzyme Immunoassay Kit, cGMP in the produced GC-C-expressing cell line (guanylin dose-response and comparison with parental cells); assay type: cell-based
Description: Populations of cells were tested using functional criteria. The Direct Cyclic GMP Enzyme Immunoassay Kit (Cat. 900-014; AssayDesigns, Inc.) was used according to manufacturer's instructions: (http://www.assaydesigns.com/objects/catalog//product/extras/900-014.pdf). Cells were tested at 4 different densities in 96- or 384-well plates and responses were analyzed. The following conditions were used for the GC-C-expressing cell lines of the invention:
as §1
The cGMP level in the produced GC-C-expressing cell line treated with 100 nM guanylin was also compared to that of parental cell line control samples not expressing GC-C (not shown) using the Direct Cyclic GMP Enzyme Immunoassay Kit (Cat. 900-014; AssayDesigns, Inc.).
For guanylin dose-response experiments, cells of the produced GC-C-expressing cell line, plated at densities of 20,000, 40,000, 60,000, 80,000, 120,000 and 160,000 cells/well in a 96-well plate, were challenged with increasing concentration of guanylin for 30 minutes (see FIG. 2). […] 140(4):1800-1806 (1999)), indicating the potency of the clone.

[3] = system: other cell lines; conditions: low concentrations of guanylin, Forte et al., Endocr. 140(4):1800-1806 (1999); cited from earlier work
[4] = target: human guanylate cyclase-C (GC-C) (human) (UniProt P25092); test: cell-based or functional assay
human guanylate cyclase-C (GC-C) (human), sequence (P25092 24-1073 F281L limits assumed): as the sequence (P25092 24-1073 F281L) above

absorbance (corresponding to cGMP levels) vs control without cell lysate [1]	absorbance (corresponding to cGMP levels) vs parental cells not expressing GC-C ([2]; 100 nM guanylin, compared with parental cells treated and untreated with guanylin)	EC50 ([2]; produced GC-C-expressing 293T cell line, guanylin 30 minutes, non-linear regression, GraphPad Prism 5.0) [nM]	level of cGMP ([2]; produced GC-C-expressing cell line treated with low concentrations of guanylin) [pmol/mL]	EC50 of guanylin dose-response, cellular cGMP level (absorbance, Direct Cyclic GMP Enzyme Immunoassay Kit) [4] [nM]	level of cGMP in the GC-C-expressing cell line treated with low concentrations of guanylin [4] [pmol/mL]	Compound	level of cGMP previously reported [3] [pmol/mL]
Reduction in absorbance	greater reduction in absorbance	~1.1	6	–	–	CC[C@H](C)[C@@H]1NC(=O)[C@H](CCC(=O)O)NC(=O)[C@@H](NC(=O)[C@@H](NC(=O)CNC(=O)[C@@H]2CCCN2)[C@@H](C)O)CSSC[C@@H]2NC(=O)[C@H](C)NC(=O)[C@H](C)NC(=O)[C@H](Cc3ccc(O)cc3)NC(=O)[C@H](C)NC(=O)[C@H](CSSC[C@@H](C(=O)O)NC(=O)CNC(=O)[C@H]([C@@H](C)O)NC2=O)NC1=O [guanylin] (H-PGTCEICAYAACTGC-OH; disulfide 4-12, 7-15 (inferred); N-terminus and C-terminus assumed)	3.5
–	–	–	–	1.1	6	guanylin (peptide)	–
